According to article PMC8906351 (Pharmaceutical research, 2021):
Counter-ions that a name gives are not always drawn.

What was measured:
[1] = system: [^14C]phenytoin efflux across the rat BBB; assay: BEI inhibition study: pre-administration of compounds into rat Par2 region; format: in vivo; conditions: for effect of pre-administration on [14C]phenytoin BEI (in words): 20 mM desipramine, probenecid, MK-571, 5 mM quinidine, 4 mM verapamil, 500 μM prazosin, 10 mM methotrexate, DHEAS, PSC833
MCT8 = conditions: concentration of 1 mM; cited from earlier work
Brain efflux index [2] = format: in vivo, mouse
Brain efflux index [3] = conditions: rat
[4] = adult rats; brain uptake index; cited from earlier work
[5] = rat, 0.01 uCi
P-glycoprotein (P-gp) = assay: In situ brain perfusion in wild-type and mdr1a/1b knockout mice; format: in vivo, mouse; conditions: [14C]phenytoin 2.73 μM; perfusion 2.5 mL/min for 2 min
in vivo = conditions: rat, not told

## O=C1OC(c2ccc(O)c(S(=O)(=O)O)c2)(c2ccc(O)c(S(=O)(=O)O)c2)c2c(Br)c(Br)c(Br)c(Br)c21 [BSP, Bromosulfophthalein]
[1]; rat, 30 min, pre-administration of 20 mM
  decrease of [14C]phenytoin BEI: 82%
MCT8
  inhibition of MCT8-mediated transport of the other substrates: more than 50%

## CNCCCN1c2ccccc2CCc2ccccc21 [Desipramine, desipramine hydrochloride]
[1]; 0.5 h, 20000 µM
  BEI (%): 28.4 ± 20.7%
[1]; rat, 30 min
  effect of pre-administration on [14C]phenytoin BEI (in words): significantly decreased
MCT8
  inhibition of MCT8-mediated transport of the other substrates: more than 50%

## CN(C)C(=O)CCSC(SCCC(=O)O)c1cccc(/C=C/c2ccc3ccc(Cl)cc3n2)c1 (centres unmarked) [MK-571]
[1]; rat, 30 min
  effect of pre-administration on [14C]phenytoin BEI (in words): not significantly altered

## CN(Cc1cnc2nc(N)nc(N)c2n1)c1ccc(C(=O)N[C@@H](CCC(=O)O)C(=O)O)cc1 [Methotrexate, methotrexate]
[1]; 0.5 h, 10000 µM
  BEI (%): 67.3 ± 16.7%
[1]; rat, 30 min
  effect of pre-administration on [14C]phenytoin BEI (in words): not significantly altered

## C/C=C/C[C@@H](C)C(=O)[C@H]1C(=O)N[C@@H](C(C)C)C(=O)N(C)CC(=O)N(C)[C@@H](CC(C)C)C(=O)N[C@@H](C(C)C)C(=O)N(C)[C@@H](CC(C)C)C(=O)N[C@@H](C)C(=O)N[C@H](C)C(=O)N(C)[C@@H](CC(C)C)C(=O)N(C)[C@@H](CC(C)C)C(=O)N(C)[C@@H](C(C)C)C(=O)N1C [PSC833]
[1]; rat, 30 min
  effect of pre-administration on [14C]phenytoin BEI (in words): did not alter

## COc1cc2nc(N3CCN(C(=O)c4ccco4)CC3)nc(N)c2cc1OC [Prazosin, prazosin]
[1]; rat, 30 min
  effect of pre-administration on [14C]phenytoin BEI (in words): not significantly altered
[1]; rat, 30 min, compound 0.5 mM pre-administered, control 64.1 ± 12.9
  BEI (%): 59.4 ± 8.5%

## CCCN(CCC)S(=O)(=O)c1ccc(C(=O)O)cc1 [Probenecid, probenecid]
[1]; 0.5 h, 20000 µM
  BEI (%): 56.5 ± 24.9%
[1]; rat, 30 min
  effect of pre-administration on [14C]phenytoin BEI (in words): not significantly altered

## C=C[C@H]1C[N@@]2CC[C@H]1C[C@@H]2[C@@H](O)c1ccnc2ccc(OC)cc12 [Quinidine, quinidine]
[1]; 0.5 h, 5000 µM
  BEI (%): 50.5 ± 13.1%
[1]; rat, 30 min
  effect of pre-administration on [14C]phenytoin BEI (in words): not significantly altered

## O=C1NC(=O)C(c2ccccc2)(c2ccccc2)N1 [phenytoin, 5,5-diphenylhydantoin]
Brain efflux index [2]; mice, [14C]phenytoin 1.15 mM, 0.3 μL injected into S2 region
  brain elimination rate constant kel, BBB: 0.0223 ± 0.0075 min⁻¹
Brain efflux index [2]; mice, [14C]phenytoin injected into S2 region
  half-life t1/2 in the brain: 31.1 ± 10.8 min
Brain efflux index [2]; mouse, brain (ipsilateral hemisphere), 0.019 μCi/0.3 μL (= 1.15 mM)
  half-life: 31 min
[1]; rat, 30 min, pre-administration of 1 mM unlabeled phenytoin
  100 − BEI value of [14C]phenytoin compared to control: significantly increased
Brain efflux index [3]; 177 vs 64 μL/(min·g brain) of Cornford et al.
  elimination clearance relative to influx clearance: 2.8 fold
Brain efflux index [3]; from kel, bbb and Vd, brain
  elimination clearance across the BBB: 177 ±20 μL/(mim•g brain)
[4]
  blood-to-brain influx clearance: 64 μL/(min·g brain)
[5]; in vivo
  elimination rate constant kel, bbb: 0.0413 ± 46 min⁻¹
[5]; not told
  half-life t1/2 of brain efflux: 16.8 ± 1.9 min
P-glycoprotein (P-gp)
  Kin value, wild-type vs mdr1a/1b knockout mice: not significantly different
In vivo
  half-life: 17 min
